The values below come from US6693108B2, “Inhibitors of c-JUN N terminal kinases (JNK) and other protein kinases” (Vertex Pharmaceuticals Incorporated, priority 1999, dated 2004).

The target in the first assay is T1, activated JNK3 (Homo sapiens, UniProt P53779).
T1 construct: One such construct encodes amino acid residues Ser40-Glu402 of JNK3α1 and is preceded by Met and Gly residues; Met-Gly (initiation Met plus Gly added to create the NcoI site) (N); made in house; host or cells: E. coli BL21 (DE3)
T1 sequence (P53779 40-402): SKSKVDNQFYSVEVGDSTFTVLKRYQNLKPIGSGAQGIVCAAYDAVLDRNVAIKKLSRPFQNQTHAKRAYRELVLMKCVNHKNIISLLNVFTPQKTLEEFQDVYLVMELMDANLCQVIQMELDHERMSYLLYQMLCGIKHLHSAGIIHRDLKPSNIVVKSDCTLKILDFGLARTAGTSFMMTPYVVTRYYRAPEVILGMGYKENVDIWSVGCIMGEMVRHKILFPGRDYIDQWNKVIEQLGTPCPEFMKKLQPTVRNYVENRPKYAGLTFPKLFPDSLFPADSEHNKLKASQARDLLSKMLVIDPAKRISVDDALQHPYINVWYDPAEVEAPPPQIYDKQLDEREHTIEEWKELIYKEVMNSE
The assay can be described thus: JNK3 inhibition, spectrophotometric coupled-enzyme assay. The assay is classed as biochemical. The arrangement: Activity in the JNK3 Inhibition Assay (Ki rating): scale not given here. The settings on record: activated JNK3 10 nM, 10 μM ATP, 30° C.; Ki from competitive inhibition model. An excerpt: A BLAST search of the EST database using the published JNK3α1 cDNA as a query identified an EST clone (#632588) that contained the entire coding sequence for human JNK3α1. Polymerase chain reactions (PCR) using pfu polymerase (Strategene) were used to introduce restriction sites into the cDNA for cloning into the pET-15B expression vector at the NcoI and BamHI sites. The protein was expressed in E. coli. […] This truncation corresponds to Ser 2 of JNK1 and JNK2 proteins, and is preceded by a methionine (initiation) and a glycine residue. The glycine residue was added in order to introduce an NcoI site for cloning into the expression vector. In addition, systematic C-terminal truncations were performed by PCR to identify a construct that give rise to diffraction-quality crystals.
5 mg of JNK3 was diluted to 0.5 mg/ml in 50 mM HEPES buffer, pH 7.5, containing 100 mM NaCl, 5 mM DTT, 20 mM MgCl2 and 1 mM ATP. GST-MKK7(DD) was added at a molar ratio of 1:2.5 GST-MKK7:JNK3. After incubation for 30 minutes at 25° C., the reaction mixture was concentrated 5-fold by ultrafiltration in a Centriprep-30 (Amicon, Beverly, Mass.), diluted to 10 ml and an additional 1 mM ATP added. This procedure was repeated three times to remove ADP and replenish ATP. The final addition of ATP was 5 mM and the mixture incubated overnight at 4° C.
The activated JNK3/GST-MKK7(DD) reaction mixture was exchanged into 50 mM HEPES buffer, pH 7.5, containing 5 mM DTT and 5% glycerol (w/v) by dialysis or ultrafiltration. The reaction mixture was adjusted to 1.1 M potassium phosphate, pH 7.5, and purified by hydrophobic interaction chromatography (at 25° C.) using a Rainin Hydropore column. […] Activated JNK3 (i.e. doubly phosphorylated JNK3) was stored at −70° C. at 0.25-1 mg/ml.
Compounds were assayed for the inhibition of JNK3 by a spectrophotometric coupled-enzyme assay. In this assay, a fixed concentration of activated JNK3 (10 nM) was incubated with various concentrations of a potential inhibitor dissolved in DMSO for 10 minutes at 30° C. in a buffer containing 0.1 M HEPES buffer, pH 7.5, containing 10 mM MgCl2, 2.5 mM phosphoenolpyruvate, 200 μM NADH, 150 μg/mL pyruvate kinase, 50 μg/mL lactate dehydrogenase, and 200 μM EGF receptor peptide. […] The reaction was initiated by the addition of 10 μM ATP and the assay plate is inserted into the spectrophotometer's assay plate compartment that was maintained at 30° C. The decrease of absorbance at 340 nm was monitored as a function of time. The rate data as a function of inhibitor concentration was fitted to competitive inhibition kinetic model to determine the Ki.
For `COc1cccc(-c2noc(C)c2-c2ccnc(Nc3ccccc3)n2)c1OC` [IIA-12], the “Activity in the JNK3 Inhibition Assay (Ki rating)” value was “B/C”. Take `Cc1onc(-c2ccccc2)c1-c1ccnc(Nc2cccc(F)c2C)n1` [IIA-70]: the “Activity in the JNK3 Inhibition Assay (Ki rating)” value is “A/B”.

In the case of `COc1ccc(Cl)c(Nc2nccc(-c3c(-c4ccccc4)noc3C)n2)c1` [IIA-71], the “Activity in the JNK3 Inhibition Assay (Ki rating)” value was “A/B”. With `COc1ccc(Nc2nccc(-c3c(-c4ccccc4)noc3C)n2)cc1C` [IIA-72], the “Activity in the JNK3 Inhibition Assay (Ki rating)” value is “A/B”.

The assay is the same for the next values; noted with them: read-out: Activity in the JNK3 Inhibition Assay (Ki rating).
For orientation: Ki means the dissociation constant of the complex between target and ligand, obtained from inhibition or displacement. Consider `Cc1onc(-c2ccccc2)c1-c1ccnc(Nc2ccccc2)n1` [IIA-1, [4-(5-Methyl-3-phenyl-isoxazol-4-yl)-pyrimidin-2-yl]-phenyl-amine], for which the Ki is < 100 nM. With `Cc1onc(-c2ccccc2)c1-c1ccnc(Nc2cccc(C#N)c2)n1` [IIA-7], the Ki was < 100 nM. Consider `Cc1onc(-c2ccc(F)cc2)c1-c1ccnc(Nc2ccccc2)n1` [IIA-11], for which the Ki was < 100 nM. On to `COc1ccc(-c2noc(C)c2-c2ccnc(Nc3ccccc3)n2)c(OC)c1` [IIA-13], for which the inhibitory constant (Ki) is > 1000 nM. For the compound `Cc1onc(-c2ccc(Cl)c(Cl)c2)c1-c1ccnc(Nc2ccccc2)n1` [IIA-15], the inhibitory constant (Ki) lay in the range of 100 to 1000 nM. As to `CC(=O)c1ccc(Nc2nccc(-c3c(-c4ccccc4)noc3C)n2)cc1` [IIA-35], the Ki is < 100 nM.

Consider `CSc1cccc(Nc2nccc(-c3c(-c4ccccc4)noc3C)n2)c1` [IIA-37], for which the inhibitory constant (Ki) was < 100 nM. Regarding `Cc1cc(Nc2nccc(-c3c(-c4ccccc4)noc3C)n2)ccc1C#N` [IIA-38], the Ki was < 100 nM. In the case of `CC(=O)c1cccc(Nc2nccc(-c3c(-c4ccccc4)noc3C)n2)c1` [IIA-39], the Ki was < 100 nM. In the case of `CCc1onc(-c2ccccc2)c1-c1ccnc(Nc2ccccc2)c1` [IIA-40], the Ki was < 100 nM.

`Cc1onc(-c2ccccc2)c1-c1ccnc(Nc2ccc(F)cc2)n1` [IIA-42]: the Ki is < 100 nM. Take `Cc1onc(-c2ccccc2)c1-c1ccnc(Nc2cccc(C(=O)O)c2)c1` [IIA-43]: the inhibitory constant (Ki) is < 100 nM. In the case of `Cc1onc(-c2ccccc2)c1-c1ccnc(Nc2ccc(-c3ccccc3)cc2)n1` [IIA-44], the Ki is < 100 nM. Same read-out and setting: under `CSc1ccc(Nc2nccc(-c3c(-c4ccccc4)noc3C)n2)cc1` [IIA-46] stands < 100 nM.

As to `COc1ccc(Nc2cc(-c3c(-c4ccccc4)noc3C)ccn2)cc1` [IIA-47], the Ki was < 100 nM. With `Cc1onc(-c2ccccc2)c1-c1ccnc(Nc2ccccc2)c1` [IIA-52, [4-(5-Methyl-3-phenyl-isoxazol-4-yl)-pyridin-2-yl]phenyl-amine], the inhibitory constant (Ki) was < 100 nM. In the case of `Cc1onc(-c2ccccc2)c1-c1ccnc(Nc2ccc(C(=O)O)cc2)c1` [IIA-53], the Ki was < 100 nM. In the case of `Cc1onc(-c2ccccc2F)c1-c1ccnc(Nc2ccccc2)n1` [IIA-55], the inhibition constant (Ki) was < 100 nM. `Cc1onc(-c2ccccc2)c1-c1ccnc(Nc2ccc(F)cc2F)n1` [IIA-56]: the Ki was < 100 nM. For `Cc1onc(-c2ccccc2)c1-c1ccnc(Nc2ccccc2F)n1` [IIA-59], the Ki is < 100 nM.

Take `Cc1onc(-c2c(F)cccc2F)c1-c1ccnc(Nc2ccccc2)n1` [IIA-60]: the Ki is < 100 nM. As to `COc1ccc(Nc2nccc(-c3c(-c4ccccc4)noc3C)n2)c(C)c1` [IIA-61], the Ki is < 100 nM. For the compound `COc1ccccc1Nc1nccc(-c2c(-c3ccccc3)noc2C)n1` [IIA-62], the Ki was < 100 nM. For `Cc1onc(-c2ccccc2)c1-c1ccnc(Nc2ccc(S(C)(=O)=O)cc2)n1` [IIA-63], the Ki is < 100 nM.

With `COC(=O)c1ccc(Nc2cc(-c3c(-c4ccccc4)noc3C)ccn2)cc1` [IIA-64], the Ki was < 100 nM.

As to `Cc1onc(-c2cccc(F)c2)c1-c1ccnc(Nc2ccccc2)n1` [IIA-66], the Ki is < 100 nM. Consider `Cc1onc(-c2ccccc2)c1-c1ccnc(Nc2cccc(C#N)c2)c1` [IIA-67], for which the Ki is < 100 nM. As to `Cc1onc(-c2cc(F)ccc2F)c1-c1ccnc(Nc2ccccc2)n1` [IIA-74], the Ki is 100 to 1000 nM.

`Cc1onc(-c2c(F)cccc2Cl)c1-c1ccnc(Nc2ccccc2)n1` [IIA-75]: the Ki is 100 to 1000 nM. `Cc1onc(-c2ccccc2Cl)c1-c1ccnc(Nc2ccccc2)n1` [IIA-76]: the Ki was in the range of 100 to 1000 nM. Turning to `Cc1onc(-c2ccccc2Br)c1-c1ccnc(Nc2ccccc2)n1` [IIA-79], the Ki was 100 to 1000 nM. The same measure, in the same setting: under `Cc1onc(-c2cccc(F)c2F)c1-c1ccnc(Nc2ccccc2)n1` [IIA-80] stands 100 to 1000 nM; under `Cc1onc(-c2cccc(C(F)(F)F)c2)c1-c1ccnc(Nc2ccccc2)n1` [IIA-82], 100 to 1000 nM. With `Cc1onc(-c2cc(F)cc(F)c2)c1-c1ccnc(Nc2ccccc2)n1` [IIA-83], the Ki lay within 100 to 1000 nM. Still for that read-out and setting: under `Cc1onc(-c2c(Cl)cccc2Cl)c1-c1ccnc(Nc2ccccc2)n1` [IIA-84] stands 100 to 1000 nM. With `COc1cccc(-c2noc(C)c2-c2ccnc(Nc3ccccc3)n2)c1OC` [IIA-85], the Ki was > 1000 nM.

In the case of `Cc1noc(C)c1-c1ccnc(Nc2ccccc2)n1` [IIA-86], the Ki was > 1000 nM. The same measure, in the same setting: under `Cc1onc(C2CC2)c1-c1ccnc(Nc2ccccc2)n1` [IIA-87] stands > 1000 nM; under `Cc1onc(C(C)(C)C)c1-c1ccnc(Nc2ccccc2)n1` [IIA-90], < 100 nM.

Turning to `Cc1onc(-c2c(F)cccc2F)c1-c1ccnc(Nc2cccc(C#N)c2)n1` [IIA-92], the Ki is < 100 nM.

For `Cc1onc(-c2c(F)cccc2F)c1-c1ccnc(Nc2ccc(C#N)cc2)n1` [IIA-93], the Ki is < 100 nM. On to `Cc1onc(-c2c(F)cccc2F)c1-c1ccnc(Nc2cccc(F)c2)n1` [IIA-94], for which the Ki was < 100 nM.

As for `Cc1onc(-c2c(F)cccc2F)c1-c1ccnc(Nc2ccc(F)cc2)n1` [IIA-95], the Ki was < 100 nM.

`CSc1ccc(Nc2nccc(-c3c(-c4c(F)cccc4F)noc3C)n2)cc1` [IIA-97]: the Ki is < 100 nM. In the case of `Cc1onc(-c2ccccc2)c1-c1ccnc(Nc2ccc(N(C)C)cc2)c1` [IIA-98], the Ki is < 100 nM. `Cc1ccc(Nc2nccc(-c3c(-c4ccccc4)noc3C)n2)cc1` [IIA-103]: the Ki is < 100 nM.

Turning to `Cc1ccccc1-c1noc(C)c1-c1ccnc(Nc2ccccc2)n1` [IIA-104], the Ki was < 100 nM. On the same count and under the same terms, under `Cc1ccccc1-c1noc(C)c1-c1ccnc(Nc2ccc(C#N)c(F)c2)n1` [IIA-105] stands < 100 nM. On the same count and under the same terms, under `Cc1cccc(Nc2nccc(-c3c(-c4ccccc4C)noc3C)n2)c1` [IIA-108] stands < 100 nM.

`Cc1ccccc1-c1noc(C)c1-c1ccnc(Nc2cccc(C#N)c2)n1` [IIA-109]: the Ki was < 100 nM. Take `Cc1onc(-c2ccccc2C(F)(F)F)c1-c1ccnc(Nc2ccc(C#N)c(F)c2)n1` [IIA-110]: the Ki is > 1000 nM. The same measure, in the same setting: under `Cc1onc(-c2ccccc2C(F)(F)F)c1-c1ccnc(Nc2ccccc2)n1` [IIA-112] stands > 1000 nM; under `Cc1onc(-c2ccc3c(c2)OCO3)c1-c1ccnc(Nc2ccccc2)n1` [IIA-115], 100 to 1000 nM; under `Cc1onc(-c2cccc(OCc3ccccc3)c2)c1-c1ccnc(Nc2ccc(C#N)c(F)c2)n1` [IIA-117], 100 to 1000 nM. For the compound `Cc1onc(-c2cccc(OCc3ccccc3)c2)c1-c1ccnc(Nc2ccccc2)n1` [IIA-119], the Ki was 100 to 1000 nM. On the same count and under the same terms, under `Cc1onc(-c2cccc([N+](=O)[O-])c2)c1-c1ccnc(Nc2ccccc2)n1` [IIA-123] stands 100 to 1000 nM.

Consider `Cc1onc(-c2cccc(C#N)c2)c1-c1ccnc(Nc2cccc(C#N)c2)n1` [IIA-126], for which the Ki lay within 100 to 1000 nM.

Take `Cc1onc(-c2cccc(C#N)c2)c1-c1ccnc(Nc2ccccc2)n1` [IIA-127]: the Ki lay within 100 to 1000 nM. With `CCOC(=O)c1ccc(Nc2nccc(-c3c(-c4cccc([N+](=O)[O-])c4)noc3C)n2)cc1` [IIA-128], the Ki lay in the range of 100 to 1000 nM. Regarding `COC(=O)c1cccc(Nc2nccc(-c3c(-c4cccc(C#N)c4)noc3C)n2)c1` [IIA-129], the Ki lay within 100 to 1000 nM. Consider `CCOC(=O)c1cccc(Nc2nccc(-c3c(-c4ccccc4)noc3C)n2)c1` [IIA-130], for which the Ki is < 100 nM.
